pIC50: −log10 of the molar value. The source made the active and inactive calls. The calls are words filed in the database; no cut-off is given here.
Experiments:
[1] = Inhibition of LPS-induced PGE2 production in C57BL6 mouse peritoneal cells measured at 5 hrs time interval by ELISA; assay type: functional; conditions: C57BL6, 5 h
Mus musculus = species on record: Mus musculus; test: Inhibition of LPS-induced PGE2 production in C57BL6 mouse peritoneal cells at 50 uM measured at 5 hrs time interval by ELISA; assay type: functional
[2] = Cytotoxicity against C57BL6 mouse peritoneal cells assessed as cell viability measured at 5 hrs time interval by LDH release assay (reference value: 98.9 +/- 1.6%); assay type: cell-based; conditions: read-out: Activity

Row | Structure (SMILES) | pIC50 [1] | inhibition (Mus musculus) | viability at 5 h [2] [%]
1 | CCCCc1c(-c2ccccc2)nc(N)nc1-c1ccc(C)cc1 | 5.61 | Active | 102
2 | CCCCc1c(-c2ccccc2)nc(N)nc1-c1ccccc1 | – | Active | –
3 | CCCCc1c(Cl)nc(N)nc1Cl | 5.27 | Active | 99.8
4 | CCCCc1c(-c2ccc(OC)cc2)nc(N)nc1-c1ccc(OC)cc1 | 5.43 | Active | 99.1
5 | COc1ccc(-c2nc(N)nc(-c3ccc(OC)cc3)c2C)cc1 | – | Active | –
6 | Cc1c(Cl)nc(N)nc1Cl | – | inactive | –
7 | COc1ccc(-c2nc(N)nc(-c3ccc(C)cc3)c2C)cc1 | – | Active | –
8 | CC(=O)Oc1ccccc1C(=O)O [ASPIRIN] | 5.39 | – | –
9 | CCCCc1c(Cl)nc(N)nc1-c1ccccc1 | – | Active | –
10 | Cc1ccc(-c2nc(N)nc(Cl)c2C)cc1 | – | Active | –
11 | Cc1ccc(-c2cc(-c3ccc(C)cc3)nc(N)n2)cc1 | 7.48 | Active | 103
12 | COc1ccc(-c2cc(-c3ccccc3)nc(N)n2)cc1 | 8.05 | Active | 99.9
13 | COc1ccc(-c2cc(-c3ccc(C)cc3)nc(N)n2)cc1 | – | Active | –
14 | COc1ccc(-c2cc(Cl)nc(N)n2)cc1 | 5.55 | Active | 103
15 | CCCCc1c(Cl)nc(N)nc1-c1ccc(OC)cc1 | 5.67 | Active | 96.6
16 | Cc1ccc(-c2cc(Cl)nc(N)n2)cc1 | 5.63 | Active | 103

Row | Structure (SMILES) | pIC50 [1] | inhibition (Mus musculus) | viability at 5 h [2] [%]
17 | Cc1ccc(-c2nc(N)nc(-c3ccccc3)c2C)cc1 | – | Active | –
18 | COc1ccc(-c2nc(N)nc(Cl)c2C)cc1 | – | Active | –
19 | Cc1ccc(-c2nc(N)nc(-c3ccc(C)cc3)c2C)cc1 | – | Active | –
20 | Cc1ccc(-c2cc(-c3ccccc3)nc(N)n2)cc1 | 8.05 | Active | 103
21 | CCCCc1c(-c2ccc(C)cc2)nc(N)nc1-c1ccc(OC)cc1 | – | Active | –
22 | COc1ccc(-c2cc(-c3ccc(OC)cc3)nc(N)n2)cc1 | 6.92 | Active | 102
23 | COc1ccc2c(c1)c(CC(=O)O)c(C)n2C(=O)c1ccc(Cl)cc1 [INDOMETHACIN] | 8.30 | – | –
24 | Cc1c(Cl)nc(N)nc1-c1ccccc1 | – | Active | –
25 | CCCCc1c(-c2ccccc2)nc(N)nc1-c1ccc(OC)cc1 | 5.47 | Active | 102
26 | Nc1nc(Cl)cc(-c2ccccc2)n1 | – | Active | –
27 | CCCCc1c(-c2ccc(C)cc2)nc(N)nc1-c1ccc(C)cc1 | – | Active | –
28 | Nc1nc(Cl)cc(Cl)n1 | – | inactive | –
29 | Nc1nc(-c2ccccc2)cc(-c2ccccc2)n1 | 8.52 | Active | 97.4
30 | Cc1c(-c2ccccc2)nc(N)nc1-c1ccccc1 | – | Active | –
31 | COc1ccc(-c2nc(N)nc(-c3ccccc3)c2C)cc1 | – | Active | –
32 | CCCCc1c(Cl)nc(N)nc1-c1ccc(C)cc1 | 5.73 | Active | 101
